The values that follow come from patent US20240116946A1 (Gilead Sciences, Inc., priority 2022, published 2024).

The structures appear in SMILES notation. Like-named read-outs stand apart in the source and are kept apart here.

Assay [1] addresses recombinant SARS-CoV-2 Main protease (Mpro) (Severe acute respiratory syndrome coronavirus 2 (2019-nCoV) (SARS-CoV-2), UniProt P0DTD1). Description: Cov Mpro Biochemical IC50 Assay. The settings on record: read-out: MPro IC50.
The next assay has as its system SARS-CoV-2-NLuc. Description: microbe, parasite or virus in culture. It counts as cell-based, SARS Coronavirus 2.
Where [2] appears, read: recombinant SARS-CoV-2 Mpro, fluorogenic peptide substrate.
The mark [3] stands for this setting: Severe acute respiratory syndrome coronavirus, 48 h, read-out: MPro EC50.
Setting [4] is: recombinant SARS-CoV-2 Mpro 7.5 nM, fluorogenic peptide substrate 40 μM.
Where [5] appears, read: Severe acute respiratory syndrome coronavirus, 48 h; read-out: MPro EC50.

As for `N#Cc1ccccc1-c1ccc2c(=O)n(-c3cncc4ccccc34)c(=O)[nH]c2c1` [Example 65, 2-(3-(isoquinolin-4-yl)-2,4-dioxo-1,2,3,4-tetrahydroquinazolin-7-yl)benzonitrile], the IC50 in assay [1] (setting [2]) was 108 nM. The EC50 in the assay on SARS-CoV-2-NLuc (setting [3]) is 286 nM.

Regarding `Cn1cc(-c2cccc(Cl)c2-c2cc3[nH]c(=O)n(-c4cncc5ccccc45)c(=O)c3s2)c(C(F)(F)F)n1` (single isomer, unassigned) [Example 448, 6-(2-chloro-6-(1-methyl-3-(trifluoromethyl)-1H-pyrazol-4-yl)phenyl)-3-(isoquinolin-4-yl)thieno[3,2-d]pyrimidine-2,4(1H,3H)-dione], the IC50 in assay [1] (setting [4]) was determined as 383 nM. The concentration giving a half-maximal response (EC50) in the assay on SARS-CoV-2-NLuc (read-out: MPro EC50) worked out at 382 nM.

In the case of `COc1ccc(C#N)c(-c2cc3[nH]c(=O)n(-c4cncc5ccc(C(F)F)cc45)c(=O)c3s2)c1` [Example 224], the IC50 in assay [1] (setting [2]) was determined as 10.2 nM. The EC50 in the assay with SARS-CoV-2-NLuc (setting [3]) was 124 nM.

In the case of `Cc1ccc2cncc(-n3c(=O)[nH]c4cc(-c5ccccc5Cl)sc4c3=O)c2n1` [Example 453, 6-(2-chlorophenyl)-3-(2-methyl-1,6-naphthyridin-8-yl)thieno[3,2-d]pyrimidine-2,4(1H,3H)-dione], the IC50 in assay [1] (setting [4]) stood at 3.83 nM. Also, the EC50 with SARS-CoV-2-NLuc (setting [3]) came to 22.1 nM.

As to `COc1ccc(Cl)c(-c2cc3[nH]c(=O)n(-c4cncc5ccc(N6CC7C(C6)C7(F)F)cc45)c(=O)c3s2)c1` (centres unmarked) [Example 232], in assay [1] (setting [2]), the IC50 was 17.6 nM. Besides, in the assay with SARS-CoV-2-NLuc (setting [3]), the EC50 was 34.9 nM.

As to `COc1cc(-c2cc3c(s2)c(=O)n(-c2cncc4ccsc24)c(=O)n3CCC#N)c(Cl)cc1F` [Example 654], the IC50 in assay [1] (setting [4]) came to 3.87 nM. Moreover, in the assay with SARS-CoV-2-NLuc (setting [3]), the EC50 was found to be 2.42 nM.

In the case of `COCc1ccc(Cl)c(-c2ccc3c(=O)n(-c4cncc5ccccc45)c(=O)[nH]c3c2)c1` [Example 303], the IC50 in assay [1] (setting [2]) is 270 nM. For the same compound, in the assay on SARS-CoV-2-NLuc (setting [3]), the EC50 came out at 365 nM.

With `O=c1[nH]c2cc(-c3ccccc3Cl)sc2c(=O)n1-c1cncc2ccc(N3CC(F)(F)C3)cc12` [Example 420], the IC50 in assay [1] (setting [4]) amounted to 10.8 nM. For the same compound, the half-maximal effective concentration (EC50) in the assay on SARS-CoV-2-NLuc (setting [3]) came to 50.9 nM.

As for `Cn1cnc2cncc(-n3c(=O)c4sc(-c5ccc(F)cc5Cl)cc4n(CCC#N)c3=O)c21` [Example 851], the 50% inhibitory concentration (IC50) in assay [1] (setting [4]) was found to be 22.3 nM. Further, in the assay on SARS-CoV-2-NLuc (setting [5]), the EC50 turned out to be 75.3 nM.

As to `Cn1ncc2cncc(-n3c(=O)c4sc(-c5ccc(F)cc5Cl)cc4n(CCC#N)c3=O)c21` [Example 769, 3-(6-(2-chloro-4-fluorophenyl)-3-(1-methyl-1H-pyrazolo[4,3-c]pyridin-7-yl)-2,4-dioxo-3,4-dihydrothieno[3,2-d]pyrimidin-1(2H)-yl)propanenitrile], the IC50 in assay [1] (setting [4]) was 8.55 nM. The EC50 in the assay on SARS-CoV-2-NLuc (setting [5]) was 15.6 nM.

For `COc1cc(-c2cc3c(s2)c(=O)n(-c2cncc4nc(-c5coc(C)n5)n(C)c24)c(=O)n3CCC#N)c(Cl)cc1F` [Example 757], the IC50 in assay [1] (setting [4]) stood at 11.4 nM. Also, the EC50 in the assay on SARS-CoV-2-NLuc (setting [3]) turned out to be 40.3 nM.

In the case of `Cc1cncc(-n2c(=O)c3sc(-c4ccccc4Cl)cc3n(CCC#N)c2=O)c1` [Example 984], in assay [1] (setting [4]), the IC50 stood at 3.12 nM. Moreover, the half-maximal effective concentration (EC50) in the assay with SARS-CoV-2-NLuc (setting [5]) came to 3.69 nM.

In the case of `COc1ccc(C#N)c(-c2cc3[nH]c(=O)n(-c4cncc5ccc(F)cc45)c(=O)c3s2)c1` [Example 589], the half-inhibitory concentration (IC50) in assay [1] (setting [4]) worked out at 5.01 nM. Further, in the assay on SARS-CoV-2-NLuc (setting [3]), the EC50 was 23.7 nM.

In the case of `COc1cc(-c2cc3[nH]c(=O)n(-c4cc(C)cnn4)c(=O)c3s2)c(Cl)cc1F` [Example 746], the IC50 in assay [1] (setting [4]) is 4.17 nM. For the same compound, the EC50 with SARS-CoV-2-NLuc (setting [3]) was determined as 54.3 nM.

As for `O=c1[nH]c2cc(-c3c(Cl)cccc3-c3nc4ccccc4[nH]3)ccc2c(=O)n1-c1cncc2ccccc12` [Example 161, 7-[2-(1H-benzimidazol-2-yl)-6-chloro-phenyl]-3-(4-isoquinolyl)-1H-quinazoline-2,4-dione], the IC50 in assay [1] (setting [2]) was 27.1 nM. In addition, the EC50 in the assay with SARS-CoV-2-NLuc (setting [3]) was 129 nM.

For the compound `N#CCCn1c(=O)n(-c2cncc3ccc(F)cc23)c(=O)c2sc(-c3ccc(F)cc3Cl)cc21` [Example 948], the IC50 in assay [1] (setting [4]) was found to be 12.5 nM. Also, the EC50 with SARS-CoV-2-NLuc (setting [3]) came out at 12.1 nM.

In general, IC50 refers to the concentration that inhibits the measured activity by half. As usually defined, the EC50 is the midpoint of the concentration-response curve.
